Patent US11986532B2 (Arvinas Operations, Inc., priority 2021, dated 2024)
Like-named read-outs stand apart in the source and are kept apart here.

Target: T1, BCL6 (Homo sapiens, UniProt P41182)
T1 construct: endogenous in cells; host or cells: T47D breast cancer epithelial cells
Test: Immunofluorescence protocol for high content imaging of BCL6 (degradation) in T47D cells, 3 days compound treatment
Format: cell-based
Conditions: for DC50: read-out: Mean DC50 (nM)* category; for Dmax: read-out: Mean Dmax (%)** category
In short: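 Read-out: high-content imaging of anti-BCL6 immunofluorescence (Alexa-488 secondary) with CellMask and Hoechst counterstains, 10×, 4 fields/well. Cells had 3 days of compound exposure at 37° C, 5% CO2, 11-point 3-fold series from a final top of 0.1 or 1 μM.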

[1] = T47D cells, 3 days compound treatment

DC50 [1] [nM] | Dmax [1] [%] | DC50 [nM] | Dmax (T47D) [%] | SMILES | Mean Dmax (%)** category
< 10 | ≥ 70 |  |  | CNC(=O)COc1cc2cc(Nc3nc(N4CCC(C(C)(C)N5CCC6(CC5)CN(c5cccc7c5C(=O)N(C5CCC(=O)NC5=O)C7=O)C6)CC4)ncc3Cl)ccc2n(C(C)C)c1=O (stereo not shown) [Compound 46, 2-{[6-({5-chloro-2-[4-(2-{2-[2-(2,6-dioxopiperidin-3-yl)-1,3-dioxo-2,3-dihydro-1H-isoindol-4-yl]-2,7-diazaspiro [3.5]nonan-7-yl}propan-2-yl)piperidin-1-yl]pyrimidin-4-yl}amino)-2-oxo-1-(propan-2-yl)-1,2-dihydroquinolin-3-yl]oxy}-N-methylacetamide] | 
 |  | < 10 |  | CNC(=O)COc1cc2cc(Nc3nc(N4CCCCC4)ncc3Cl)ccc2n(CCOc2ccc3c(c2)C(=O)N(C2CCC(=O)N(C)C2=O)C3=O)c1=O (stereo not shown) [Compound 320, 2-[(6-{[5-chloro-2-(piperidin-1-yl)pyrimidin-4-yl]amino}-1-(2-{[2-(1-methyl-2,6-dioxopiperidin-3-yl)-1,3-dioxo-2,3-dihydro-1H-isoindol-5-yl]oxy}ethyl)-2-oxo-1,2-dihydroquinolin-3-yl)oxy]-N-methylacetamide] | 
 |  | < 10 | ≥ 70 | CNC(=O)COc1cc2cc(Nc3nc(N4CCC(CN5CCC6(CC5)CC5(CN(c7ccc8c(c7)C(=O)N(C7CCC(=O)NC7=O)C8=O)C5)C6)CC4)ncc3Cl)ccc2n(C(C)C)c1=O (stereo not shown) [Compound 373, 2-{[6-({5-chloro-2-[4-({2-[2-(2,6-dioxopiperidin-3-yl)-1,3-dioxo-2,3-dihydro-1H-isoindol-5-yl]-2,9-diazadispiro[3.1.5^6.1^4]dodecan-9-yl}methyl)piperidin-1-yl]pyrimidin-4-yl}amino)-2-oxo-1-(propan-2-yl)-1,2-dihydroquinolin-3-yl]oxy}-N-methylacetamide] | 
50 to 100 | < 50 |  |  | CNC(=O)COc1cc2cc(Nc3nc(N4CCN(C[C@H]5C[C@H](N6CCC(c7cccc8c7C(=O)N(C7CCC(=O)NC7=O)C8=O)CC6)C5)CC4)ncc3Cl)ccc2n(C(C)C)c1=O (stereo partly shown) [Compound 24, 2-[(6-{[5-chloro-2-(4-{[(1r,3r)-3-{4-[2-(2,6-dioxopiperidin-3-yl)-1,3-dioxo-2,3-dihydro-1H-isoindol-4-yl]piperidin-1-yl}cyclobutyl]methyl}piperazin-1-yl)pyrimidin-4-yl]amino}-2-oxo-1-(propan-2-yl)-1,2-dihydroquinolin-3-yl)oxy]-N-methylacetamide] | 
 |  | < 10 | ≥ 70 | CNC(=O)COc1cc2cc(Nc3nc(N4CCC(CN5CCC6(CN(c7ccc8c(c7F)CN(C7CCC(=O)NC7=O)C8=O)C6)C(F)(F)C5)CC4)ncc3Cl)ccc2n(C(C)C)c1=O (stereo not shown) [Compound 332, 2-{[6-({5-chloro-2-[4-({2-[2-(2,6-dioxopiperidin-3-yl)-4-fluoro-1-oxo-2,3-dihydro-1H-isoindol-5-yl]-5,5-difluoro-2,7-diazaspiro[3.5]nonan-7-yl}methyl)piperidin-1-yl]pyrimidin-4-yl}amino)-2-oxo-1-(propan-2-yl)-1,2-dihydroquinolin-3-yl]oxy}-N-methylacetamide] | 
 |  | < 10 | 50 to 70 | CNC(=O)COc1cc2cc(Nc3nc(N4CCN(CC5CC6(CCN(c7ccc8c(c7F)CN(C7CCC(=O)NC7=O)C8=O)CC6)C5)CC4)ncc3Cl)ccc2n(C(C)C)c1=O (stereo not shown) [Compound 319, 2-{[6-({5-chloro-2-[4-({7-[2-(2,6-dioxopiperidin-3-yl)-4-fluoro-1-oxo-2,3-dihydro-1H-isoindol-5-yl]-7-azaspiro[3.5]nonan-2-yl}methyl)piperazin-1-yl]pyrimidin-4-yl}amino)-2-oxo-1-(propan-2-yl)-1,2-dihydroquinolin-3-yl]oxy}-N-methylacetamide] | 
 |  | < 10 | 50 to 70 | CNC(=O)COc1cc2cc(Nc3nc(N4CCC(CN5CCC6(CC5)CN(c5ccc7c(c5OC)CN(C5CCC(=O)NC5=O)C7=O)C6)CC4)ncc3Cl)ccc2n(C(C)C)c1=O (stereo not shown) [Compound 302, 2-{[6-({5-chloro-2-[4-({2-[2-(2,6-dioxopiperidin-3-yl)-4-methoxy-1-oxo-2,3-dihydro-1H-isoindol-5-yl]-2,7-diazaspiro[3.5]nonan-7-yl}methyl)piperidin-1-yl]pyrimidin-4-yl}amino)-2-oxo-1-(propan-2-yl)-1,2-dihydroquinolin-3-yl]oxy}-N-methylacetamide] | 
 |  | < 10 | ≥ 70 | CNC(=O)COc1cc2c(F)c(Nc3cc(N4CCN(CC5CCC6(CC5)CN(c5cccc7c5C(=O)N(C5CCC(=O)NC5=O)C7=O)C6)CC4)ncc3Cl)ccc2n(C(C)C)c1=O (stereo not shown) [Compound 247, 2-{[6-({5-chloro-2-[4-({2-[2-(2,6-dioxopiperidin-3-yl)-1,3-dioxo-2,3-dihydro-1H-isoindol-4-yl]-2-azaspiro[3.5]nonan-7-yl}methyl)piperazin-1-yl]pyridin-4-yl}amino)-5-fluoro-2-oxo-1-(propan-2-yl)-1,2-dihydroquinolin-3-yl]oxy}-N-methylacetamide] | 
< 10 | 50 to 70 |  |  | CNC(=O)COc1cc2cc(Nc3nc(N4CCC(CN5CC6(CCN(c7cc8c(cc7OC)C(=O)N(C7CCC(=O)NC7=O)C8)CC6)C5)CC4)ncc3Cl)ccc2n(C(C)C)c1=O (stereo not shown) [Compound 85, 2-{[6-({5-chloro-2-[4-({7-[2-(2,6-dioxopiperidin-3-yl)-6-methoxy-1-oxo-2,3-dihydro-1H-isoindol-5-yl]-2,7-diazaspiro[3.5]nonan-2-yl}methyl)piperidin-1-yl]pyrimidin-4-yl}amino)-2-oxo-1-(propan-2-yl)-1,2-dihydroquinolin-3-yl]oxy}-N-methylacetamide] | 
< 10 | 50 to 70 |  |  | CNC(=O)COc1cc2cc(Nc3nc(N4CCC5(CC4)CC(C(=O)N4CCC(c6cccc7c6CN(C6CCC(=O)NC6=O)C7=O)CC4)C5)ncc3Cl)ccc2n(C(C)C)c1=O (stereo not shown) [Compound 19, 2-[(6-{[5-chloro-2-(2-{4-[2-(2,6-dioxopiperidin-3-yl)-1-oxo-2,3-dihydro-1H-isoindol-4-yl]piperidine-1-carbonyl}-7-azaspiro [3.5]nonan-7-yl)pyrimidin-4-yl]amino}-2-oxo-1-(propan-2-yl)-1,2-dihydroquinolin-3-yl)oxy]-N-methylacetamide] | 
< 10 | 50 to 70 |  |  | CNC(=O)COc1cc2cc(Nc3nc(N4CCN(CC5CCN(c6cc(F)c7c(c6)CN(C6CCC(=O)NC6=O)C7=O)CC5)CC4)ncc3Cl)ccc2n(C(C)C)c1=O (stereo not shown) [Compound 18, 2-{[6-({5-chloro-2-[4-({1-[2-(2,6-dioxopiperidin-3-yl)-7-fluoro-1-oxo-2,3-dihydro-1H-isoindol-5-yl]piperidin-4-yl}methyl)piperazin-1-yl]pyrimidin-4-yl}amino)-2-oxo-1-(propan-2-yl)-1,2-dihydroquinolin-3-yl]oxy}-N-methylacetamide] | 
 |  | < 10 | 50 to 70 | CNC(=O)COc1cc2cc(Nc3nc(N4CCN(CC5CCC6(CC5)CN(c5cc7c(cc5F)C(=O)N(C5CCC(=O)NC5=O)C7)C6)CC4)ncc3Cl)ccc2n(C(C)C)c1=O (stereo not shown) [Compound 306, 2-{[6-({5-chloro-2-[4-({2-[2-(2,6-dioxopiperidin-3-yl)-6-fluoro-1-oxo-2,3-dihydro-1H-isoindol-5-yl]-2-azaspiro[3.5]nonan-7-yl}methyl)piperazin-1-yl]pyrimidin-4-yl}amino)-2-oxo-1-(propan-2-yl)-1,2-dihydroquinolin-3-yl]oxy}-N-methylacetamide] | 

SMILES | DC50 [1] [nM] | Dmax [1] [%] | DC50 [nM] | Dmax (T47D) [%] | Mean Dmax (%)** category
CNC(=O)COc1cc2cc(Nc3nc(N4CCC(O[C@H]5C[C@H](N6CC[C@H](c7ccc8c(c7F)CN([C@H]7CCC(=O)NC7=O)C8=O)C[C@H]6C)C5)CC4)ncc3Cl)ccc2n(C(C)C)c1=O [Compound 295, 2-({6-[(5-chloro-2-{4-[(1r,3r)-3-[(2R,4S)-4-{2-[(3S)-2,6-dioxopiperidin-3-yl]-4-fluoro-1-oxo-2,3-dihydro-1H-isoindol-5-yl}-2-methylpiperidin-1-yl]cyclobutoxy]piperidin-1-yl}pyrimidin-4-yl)amino]-2-oxo-1-(propan-2-yl)-1,2-dihydroquinolin-3-yl}oxy)-N-methylacetamide] |  |  | < 10 | ≥ 70 | 
CNC(=O)COc1cc2cc(Nc3nc(N4CCC(O[C@H]5C[C@H](N6CCC7(CCN(c8ccc9c(c8)CN(C8CCC(=O)NC8=O)C9=O)CC7)C6)C5)CC4)ncc3Cl)ccc2n(C(C)C)c1=O (stereo partly shown) [Compound 363, 2-({6-[(5-chloro-2-{4-[(1r,3r)-3-{8-[2-(2,6-dioxopiperidin-3-yl)-1-oxo-2,3-dihydro-1H-isoindol-5-yl]-2,8-diazaspiro[4.5]decan-2-yl}cyclobutoxy]piperidin-1-yl}pyrimidin-4-yl)amino]-2-oxo-1-(propan-2-yl)-1,2-dihydroquinolin-3-yl}oxy)-N-methylacetamide] |  |  | < 10 |  | A (A >= 70)
CCn1c(=O)c(OCC(=O)NC)cc2cc(Nc3nc(N4CCC(O[C@H]5C[C@H](N6CCC(c7ccc8c(c7)C(=O)N(C7CCC(=O)NC7=O)C8=O)CC6)C5)CC4)ncc3Cl)ccc21 (stereo partly shown) [Compound 5, 2-[[6-[[5-chloro-2-[4-[3-[4-[2-(2,6-dioxo-3-piperidyl)-1,3-dioxo-isoindolin-5-yl]-1-piperidyl]cyclobutoxy]-1-piperidyl]pyrimidin-4-yl]amino]-1-ethyl-2-oxo-3-quinolyl]oxy]-N-methyl-acetamide] | < 10 | ≥ 70 |  |  | 
CCn1c(=O)c(OCC(=O)NC)cc2cc(Nc3nc(N4CCC(O[C@H]5C[C@H](N6CCC(c7cccc8c7C(=O)N(C7CCC(=O)NC7=O)C8=O)CC6)C5)CC4)ncc3Cl)ccc21 (stereo partly shown) [Compound 140, 2-({6-[(5-chloro-2-{4-[(1r,3r)-3-{4-[2-(2,6-dioxopiperidin-3-yl)-1,3-dioxo-2,3-dihydro-1H-isoindol-4-yl]piperidin-1-yl}cyclobutoxy]piperidin-1-yl}pyrimidin-4-yl)amino]-1-ethyl-2-oxo-1,2-dihydroquinolin-3-yl}oxy)-N-methylacetamide] | 50 to 100 | ≥ 70 |  |  | 
